The source of these data is patent publication US6403597B1, “Administration of phosphodiesterase inhibitors for the treatment of premature ejaculation” (Vivus, Inc., priority 1997, dated 2002).

For data set [1], the system named is heterosexual men suffering from primary premature ejaculation. Briefly: Double-blind randomized crossover study of orally administered active agents in treating premature ejaculation (efficacy measures). The settings on record: for comparison between treatments in ejaculation latency time and sexual satisfaction score, in words: Wilcoxon signed rank test; for IVELT, Range / Anxiety score, Range: after four-week as-needed oral treatment; for IVELT, Range: baseline range 0.5-1.5; for Anxiety score, Range: baseline range 5-25; for Anxiety score, Median / Sexual satisfaction score, Median / Sexual satisfaction score, Range: after four-week treatment; for Anxiety score, Median: oral, as needed 3 to 5 hours before intercourse, clomipramine 25 mg, sertraline 50 mg, paroxetine 20 mg, sildenafil citrate 50 mg, baseline median 12; for median intravaginal ejaculation latency time: after four-week treatments, pretreatment median 1 minutes, all P<0.0001; for Sexual satisfaction score, Median / Sexual satisfaction score, Range: first nine items of EDITS questionnaire; for Sexual satisfaction score, Median: higher scores = greater satisfaction; for IVELT, Median: intravaginal ejaculation latency time after four-week as-needed oral treatment, baseline median 1; for delay of intravaginal ejaculation latency time, in words: treatment on an as needed basis; for IVELT during washout periods, Median / IVELT during washout periods, Range: two-week washout period after the treatment. On the set-up: Anxiety score, Median: scale not given here. In kind it is in vivo. The protocol:
(§1) A double-blind randomized crossover study was performed with 31 heterosexual men suffering from primary premature ejaculation, defined for the purpose of the study as an intravaginal ejaculation latency time (IVELT) of less than 2 minutes. Exclusion criteria included the following: (a) history of a psychiatric disorder; (b) current physical illness; (c) previous surgery or drug therapy with an active agent known to affect sexual function; (d) current substance abuse; (e) patients with secondary premature ejaculation combined with erectile dysfunction. All patients were asked not to use condoms or topical penile applications.
(§2) Treatment phases comprised five four-week consecutive treatment periods, each separated by a two-week washout period. […] The patients were randomly assigned to receive clomipramine hydrocloride (25 mg), sertraline hydrochloride (50 mg), paroxetine hydrochloride (20 mg), or sildenafil citrate (50 mg), or instructed to use the pause-squeeze technique developed by Masters and Johnson (Masters and Johnson, Human Sexual Inadequacy, Little, Brown & Company, Boston, Mass., 1970). The drugs were administered as needed 3 to 5 hours before planned intercourse and not more than twice a week. The pause-squeeze technique was used during intercourse. Each patient was randomly assigned to receive any of the available treatments as the first treatment and a sequence of treatment regimens. The assignment was unknown by the patient. Subjects were asked to complete a questionnaire regarding intravaginal ejaculation latency time of the last two consecutive experiences of intercourse, frequency of intercourse and possible side effects. The first nine items of the sexual satisfaction questionnaire designed by Althof et al. (Althof et al.(1999), “EDITS: Development of Questionnaires for Evaluating Satisfaction with Treatment for Erectile Dysfunction,” Urology 53:[…]) was used to measure the degree of sexual satisfaction, with higher scores indicating greater satisfaction. All measurements were obtained before treatment, after each treatment and after each washout period. Twenty healthy men who reported a sexual history free of symptoms of premature ejaculation served as a control group.
(§3) Statistical analysis: The variables in this study were statistically processed using the SPSS program for MicroSoft Windows®, standard version, release 8.0. The data were subjected to the Kolmogorov-Smirnov one-sample test, to test for normal distribution. […] Nonparametric statistical tests were used to assess differences in the measurements. Friedman's two-way analysis of variance was used for comparison between all the treatment periods. Wilcoxon signed rank test was used for evaluation of measures between baseline and after each treatment and also between every two treatment periods. The relationship between parameters was quantified by using the Spearman rank correlation coefficient. Chi-square and Fisher exact tests were used for comparison of the incidence of side effects among different treatments. Student's t-test and Chi-square test were used for comparison between the study group and control group. A two-tailed P-value <0.05 was considered significant.

The test system is the same in data set [2]. The conditions noted are these: male, human, in vivo, 4 weeks; for No. patients with side effects / patients with side effects (%): po. The protocol: as §1, §2, §3

The structures appear in SMILES notation.

`CN(C)CCCN1c2ccccc2CCc2ccc(Cl)cc21` [Clomipramine, clomipramine]: in data set [1], the “comparison between treatments in ejaculation latency time and sexual satisfaction score, in words” value (“comparison between treatments” below) was “more or less equivalent to each other”; the “IVELT, Range” value was “(1-8) min”; the “Anxiety score, Range” value was “(4-22)”; the “Anxiety score, Median” value came out at 11. In data set [1], the “median intravaginal ejaculation latency time” value turned out to be 4 min; the “Sexual satisfaction score, Median” value is reported as 11; the “Sexual satisfaction score, Range” value is reported as “(0-25)”; the “IVELT, Median” value is 4 min. Also, in data set [1], the “delay of intravaginal ejaculation latency time, in words” value (“delay” below) is “statistically significant and clinically relevant delay”; the “IVELT during washout periods, Median” value was 1 min; the “IVELT during washout periods, Range” value is given as “(0.5-1.5) min”. Moreover, the “patients with prolongation of IVELT (%)” value in data set [1] (of 31 men) is given as 71%. Besides, in data set [2], the “Side effects (no.): drowsiness” value is 1, the “Side effects (no.): dry mouth” value was 3, the “Side effects (no.): nausea” value is 1 and the “Side effects (no.): sleepiness” value was determined as 2. In data set [2], the “No. patients with side effects” value worked out at 7 and the “patients with side effects (%)” value is 25%.

Regarding `Fc1ccc([C@@H]2CCNC[C@H]2COc2ccc3c(c2)OCO3)cc1` [Paroxetine, paroxetine], in data set [1], the “comparison between treatments” value is recorded as “superior to the pause-squeeze technique”; the “IVELT, Range” value is given as “(2-10) min”; the “Anxiety score, Range” value is on record as “(5-23)”; the “Anxiety score, Median” value worked out at 9. Moreover, in data set [1], the “median intravaginal ejaculation latency time” value turned out to be 4 min; the “Sexual satisfaction score, Median” value came to 12; the “Sexual satisfaction score, Range” value was “(0-29)”; the “IVELT, Median” value stood at 4 min. In addition, in data set [1], the “delay” value is “statistically significant and clinically relevant delay”; the “IVELT during washout periods, Median” value is recorded as 1 min; the “IVELT during washout periods, Range” value is on record as “(0.5-2) min”. In addition, in data set [1] (listed as paroxetine), the “comparison between treatments” value was “more or less equivalent to each other”. For the same compound, in data set [1] (of 31 men), the “patients with prolongation of IVELT (%)” value came to 80.6%. In addition, in data set [2], the “Side effects (no.): dry mouth” value came out at 2, the “Side effects (no.): nausea” value was 1, the “Side effects (no.): yawning” value is given as 2 and the “No. patients with side effects” value is on record as 5. For the same compound, in data set [2], the “patients with side effects (%)” value turned out to be 17.2%.

For `CN[C@H]1CC[C@@H](c2ccc(Cl)c(Cl)c2)c2ccccc21` [Sertraline, sertraline], in data set [1], the “comparison between treatments” value is given as “more or less equivalent to each other”; the “IVELT, Range” value was “(1-10) min”; the “Anxiety score, Range” value is “(5-22)”; the “Anxiety score, Median” value is on record as 11. Further, in data set [1], the “median intravaginal ejaculation latency time” value is 3 min; the “Sexual satisfaction score, Median” value stood at 10; the “Sexual satisfaction score, Range” value is listed as “(0-31)”; the “IVELT, Median” value came to 3 min. Further, in data set [1], the “delay” value is “statistically significant and clinically relevant delay”; the “IVELT during washout periods, Median” value was found to be 1 min; the “IVELT during washout periods, Range” value is “(0.5-2) min”. In addition, the “patients with prolongation of IVELT (%)” value in data set [1] (of 31 men) was 71.2%. Further, in data set [2], the “Side effects (no.): anorexia” value is 1, the “Side effects (no.): drowsiness” value is recorded as 1, the “Side effects (no.): nausea” value worked out at 1 and the “No. patients with side effects” value is on record as 3. The “patients with side effects (%)” value in data set [2] is 10.3%.

Regarding `CCCc1nn(C)c2c(=O)[nH]c(-c3cc(S(=O)(=O)N4CCN(C)CC4)ccc3OCC)nc12` [Sildenafil, 5-[2-ethoxy-5-(4-methyl-1-piperazinylsulphonyl)phenyl]-1-methyl-3-n-propyl-1,6-dihydro-7H-pyrazolo[4,3-dipyrimidin-7-one]], in data set [1], the “IVELT, Range” value is recorded as “(5-30) min”; the “Anxiety score, Range” value is listed as “(4-15)”; the “Anxiety score, Median” value is listed as 8; the “median intravaginal ejaculation latency time” value was determined as 15 min. Besides, in data set [1], the “Sexual satisfaction score, Median” value came out at 30; the “Sexual satisfaction score, Range” value was “(17-34)”; the “IVELT, Median” value is 15 min; the “delay” value was “statistically significant and clinically relevant delay”. In data set [1], the “IVELT during washout periods, Median” value was determined as 1.75 min and the “IVELT during washout periods, Range” value is reported as “(0.5-8) min”. Further, the “median IVELT, median sexual satisfaction score and median IVELT during the washout period, according to Friedman's test, in words” value in data set [1] (comparison between all treatment periods) is on record as “significant increase”. The “effectiveness in the treatment of premature ejaculation, in words” value in data set [1] (in vivo) was “highly effective”. Moreover, in data set [1] (of 31 men), the “patients with prolongation of IVELT (%)” value is “over 90%” and the “patients with prolongation of IVELT (number of patients)” value was 28 patients. The “patients with prolongation of IVELT (%)” value in data set [1] (of 31 men, listed as sildenafil) amounted to 90.3%. In data set [1] (versus pretreatment), the “factor by which IVELT was increased, on average” value is 15. In data set [2], the “Side effects (no.): flushing” value is reported as 2, the “Side effects (no.): headache” value was 2, the “Side effects (no.): nasal congestion” value was found to be 1 and the “No. patients with side effects” value turned out to be 5. In addition, the “patients with side effects (%)” value in data set [2] came to 17.9%.
